Test results published in patent US20250147039A1, “Compounds for complexation of rare earth elements and/or s-, p-, d- block metals, their coordination compounds, peptide conjugates, method of their preparation and use thereof” (USTAV ORGANICKE CHEMIE A BIOCHEMIE AV CR V.V.I., priority 2021, published 2025).

What was measured:
[1] = Alkali metal dependent formation of 1,5-cz-Lig and 1,4-cz-Lig isomers from Lig at pH 10.2 (Chart 14); format: physicochemical; conditions: B: 1 day at 80° C., Borate/(M^I)2CO3 buffer pH 10.2; for conversion to 1,4-cz-Lig isomer, Li^I / conversion to 1,5-cz-Lig isomer, Li^I: visible analyte free precipitate
[2] = Formation of 1,5-cz-[M(Lig)] from Lig and M^III ions (metal dependent click-zip) (Charts 4, 5); format: physicochemical; conditions: MOPS/NaOH buffer pH 7.0, TD728, TD827 in 50% i-PrOH; for conversion to 1,5-cz-[M(Lig)], Y^III: TD714 sum of two diastereoisomers
[3] = Formation of 1,5-cz-[Ln(Lig)] from Lig and Ln^III ions (metal dependent click-zip), MOPS/NaOH buffer pH 7.0, analytical HPLC (Charts 1, 2); conditions: MOPS/NaOH buffer pH 7.0

| SMILES | conversion to 1,5-cz-[M(Lig)], Sc^III ([2]; 1 week at 80° C.) [%] | conversion to 1,5-cz-[M(Lig)], Y^III ([2]; 1 week at 80° C.) [%] | conversion to 1,5-cz-[M(Lig)], Sc^III ([2]; 1 hour at 80° C.) [%] | conversion to 1,5-cz-[M(Lig)], Y^III ([2]; 1 hour at 80° C.) [%] | conversion to 1,5-cz-[Ln(Lig)], Ce^III ([3]; after 1 hour at 80° C.) [%] | conversion to 1,5-cz-[Ln(Lig)], Dy^III ([3]; after 1 week at 80° C.) [%] | conversion to 1,5-cz-[Ln(Lig)], Dy^III ([3]; after 1 hour at 80° C.) [%] | conversion to 1,5-cz-[Ln(Lig)], Er^III ([3]; after 1 week at 80° C.) [%] | conversion to 1,5-cz-[Ln(Lig)], Er^III ([3]; after 1 hour at 80° C.) [%] | conversion to 1,5-cz-[Ln(Lig)], Eu^III ([3]; after 1 week at 80° C.) [%] | conversion to 1,5-cz-[Ln(Lig)], Eu^III ([3]; after 1 hour at 80° C.) [%] | conversion to 1,5-cz-[Ln(Lig)], Gd^III ([3]; after 1 week at 80° C.) [%] | conversion to 1,5-cz-[Ln(Lig)], Gd^III ([3]; after 1 hour at 80° C.) [%] | conversion to 1,5-cz-[Ln(Lig)], Ho^III ([3]; after 1 week at 80° C.) [%] | conversion to 1,5-cz-[Ln(Lig)], Ho^III ([3]; after 1 hour at 80° C.) [%] | conversion to 1,5-cz-[Ln(Lig)], La^III ([3]; after 1 hour at 80° C.) [%] | conversion to 1,5-cz-[Ln(Lig)], Lu^III ([3]; after 1 week at 80° C.) [%] | conversion to 1,5-cz-[Ln(Lig)], Lu^III ([3]; after 1 hour at 80° C.) [%] | conversion to 1,5-cz-[Ln(Lig)], Nd^III ([3]; after 1 hour at 80° C.) [%] | conversion to 1,5-cz-[Ln(Lig)], Pr^III ([3]; after 1 hour at 80° C.) [%] | further results |
| --- | --- | --- | --- | --- | --- | --- | --- | --- | --- | --- | --- | --- | --- | --- | --- | --- | --- | --- | --- | --- | --- |
| C#Cc1cccc(CN2CCN(CP(=O)(O)O)CCN(Cc3cccc(CN=[N+]=[N-])n3)CCN(CP(=O)(O)O)CC2)n1 [TD581] |  |  |  |  |  |  |  |  |  |  |  |  |  |  |  |  |  |  |  |  | conversion to 1,4-cz-Lig isomer, Cs^I [1]: 31%; conversion to 1,4-cz-Lig isomer, K^I [1]: 32%; conversion to 1,4-cz-Lig isomer, Na^I [1]: 26%; conversion to 1,4-cz-Lig isomer, Rb^I [1]: 32%; conversion to 1,5-cz-Lig isomer, Cs^I [1]: 6%; conversion to 1,5-cz-Lig isomer, K^I [1]: 7%; conversion to 1,5-cz-Lig isomer, Na^I [1]: 25%; conversion to 1,5-cz-Lig isomer, Rb^I [1]: 7%; conversion to 1,4-cz-Lig isomer, Li^I [1]: 19%; conversion to 1,5-cz-Lig isomer, Li^I [1]: 10% |
| C#Cc1cccc(CN2CCNCCN(Cc3cccc(CN=[N+]=[N-])n3)CCN(CC(=O)O)CC2)n1 [TD703] |  |  |  |  |  |  |  |  |  |  |  |  |  |  |  |  |  |  |  |  | conversion to 1,4-cz-Lig isomer, Cs^I [1]: 20%; conversion to 1,4-cz-Lig isomer, K^I [1]: 20%; conversion to 1,4-cz-Lig isomer, Na^I [1]: 10%; conversion to 1,4-cz-Lig isomer, Rb^I [1]: 20%; conversion to 1,5-cz-Lig isomer, Cs^I [1]: 13%; conversion to 1,5-cz-Lig isomer, K^I [1]: 14%; conversion to 1,5-cz-Lig isomer, Na^I [1]: 75%; conversion to 1,5-cz-Lig isomer, Rb^I [1]: 14%; conversion to 1,4-cz-Lig isomer, Li^I [1]: 14%; conversion to 1,5-cz-Lig isomer, Li^I [1]: 24% |

The next lines start with results.

| conversion to 1,5-cz-[M(Lig)], Sc^III ([2]; 1 week at 80° C.) [%] | conversion to 1,5-cz-[M(Lig)], Y^III ([2]; 1 week at 80° C.) [%] | conversion to 1,5-cz-[M(Lig)], Sc^III ([2]; 1 hour at 80° C.) [%] | conversion to 1,5-cz-[M(Lig)], Y^III ([2]; 1 hour at 80° C.) [%] | conversion to 1,5-cz-[Ln(Lig)], Ce^III ([3]; after 1 hour at 80° C.) [%] | conversion to 1,5-cz-[Ln(Lig)], Dy^III ([3]; after 1 week at 80° C.) [%] | conversion to 1,5-cz-[Ln(Lig)], Dy^III ([3]; after 1 hour at 80° C.) [%] | conversion to 1,5-cz-[Ln(Lig)], Er^III ([3]; after 1 week at 80° C.) [%] | conversion to 1,5-cz-[Ln(Lig)], Er^III ([3]; after 1 hour at 80° C.) [%] | conversion to 1,5-cz-[Ln(Lig)], Eu^III ([3]; after 1 week at 80° C.) [%] | conversion to 1,5-cz-[Ln(Lig)], Eu^III ([3]; after 1 hour at 80° C.) [%] | conversion to 1,5-cz-[Ln(Lig)], Gd^III ([3]; after 1 week at 80° C.) [%] | conversion to 1,5-cz-[Ln(Lig)], Gd^III ([3]; after 1 hour at 80° C.) [%] | conversion to 1,5-cz-[Ln(Lig)], Ho^III ([3]; after 1 week at 80° C.) [%] | conversion to 1,5-cz-[Ln(Lig)], Ho^III ([3]; after 1 hour at 80° C.) [%] | conversion to 1,5-cz-[Ln(Lig)], La^III ([3]; after 1 hour at 80° C.) [%] | conversion to 1,5-cz-[Ln(Lig)], Lu^III ([3]; after 1 week at 80° C.) [%] | conversion to 1,5-cz-[Ln(Lig)], Lu^III ([3]; after 1 hour at 80° C.) [%] | conversion to 1,5-cz-[Ln(Lig)], Nd^III ([3]; after 1 hour at 80° C.) [%] | conversion to 1,5-cz-[Ln(Lig)], Pr^III ([3]; after 1 hour at 80° C.) [%] | SMILES | further results |
| --- | --- | --- | --- | --- | --- | --- | --- | --- | --- | --- | --- | --- | --- | --- | --- | --- | --- | --- | --- | --- | --- |
| 0 | 12 | 0 | 0 | 0 | 20 | 0 | 12 | 0 | 25 | 0 | 24 | 0 | 14 | 0 | 0 | 7 | 0 | 0 | 0 | C#CCN(CC#C)CCN1CCN(CC(=O)O)CCN(Cc2cc(-c3ccccc3)cc(CN=[N+]=[N-])n2)CCN(CC(=O)O)CC1 [TD669] | conversion to 1,5-cz-[Ln(Lig)], Sm^III ([3]; after 1 week at 80° C.): 33%; conversion to 1,5-cz-[Ln(Lig)], Sm^III ([3]; after 1 hour at 80° C.): 0%; conversion to 1,5-cz-[Ln(Lig)], Tb^III ([3]; after 1 hour at 80° C.): 0%; conversion to 1,5-cz-[Ln(Lig)], Tm^III ([3]; after 1 week at 80° C.): 11%; conversion to 1,5-cz-[Ln(Lig)], Tm^III ([3]; after 1 hour at 80° C.): 0%; conversion to 1,5-cz-[Ln(Lig)], Yb^III ([3]; after 1 week at 80° C.): 10%; conversion to 1,5-cz-[Ln(Lig)], Yb^III ([3]; after 1 hour at 80° C.): 0% |
| 52 | 94 | 7 | 22 | 1 | 93 | 15 | 94 | 34 | 89 | 4 | 91 | 5 | 94 | 22 | 1 | 94 | 66 | 1 | 1 | C#Cc1cccc(CN2CCN(CC(=O)O)CCN(Cc3cc(-c4ccc(C(=O)O)cc4)cc(CN=[N+]=[N-])n3)CCN(CC(=O)O)CC2)n1 [TD742] | conversion to 1,5-cz-[Ln(Lig)], Ce^III ([3]; after 1 week at 80° C.): 43%; conversion to 1,5-cz-[Ln(Lig)], La^III ([3]; after 1 week at 80° C.): 40%; conversion to 1,5-cz-[Ln(Lig)], Nd^III ([3]; after 1 week at 80° C.): 76%; conversion to 1,5-cz-[Ln(Lig)], Pr^III ([3]; after 1 week at 80° C.): 66%; conversion to 1,5-cz-[Ln(Lig)], Sm^III ([3]; after 1 week at 80° C.): 87%; conversion to 1,5-cz-[Ln(Lig)], Sm^III ([3]; after 1 hour at 80° C.): 3%; conversion to 1,5-cz-[Ln(Lig)], Tb^III ([3]; after 1 week at 80° C.): 93%; conversion to 1,5-cz-[Ln(Lig)], Tb^III ([3]; after 1 hour at 80° C.): 9%; conversion to 1,5-cz-[Ln(Lig)], Tm^III ([3]; after 1 week at 80° C.): 94%; conversion to 1,5-cz-[Ln(Lig)], Tm^III ([3]; after 1 hour at 80° C.): 48%; conversion to 1,5-cz-[Ln(Lig)], Yb^III ([3]; after 1 week at 80° C.): 93%; conversion to 1,5-cz-[Ln(Lig)], Yb^III ([3]; after 1 hour at 80° C.): 55% |
| 29 | 83 | 0 | 2 | 0 | 80 | 2 | 91 | 4 | 53 | 1 | 56 | 1 | 86 | 3 | 0 | 97 | 13 | 0 | 0 | [N-]=[N+]=NCc1cccc(CN2CCN(CC(=O)O)CCN(Cc3cccc(C#CC4CCNCC4)n3)CCN(CC(=O)O)CC2)n1 [TD1127] | conversion to 1,5-cz-[Ln(Lig)], Ce^III ([3]; after 1 week at 80° C.): 7%; conversion to 1,5-cz-[Ln(Lig)], La^III ([3]; after 1 week at 80° C.): 18%; conversion to 1,5-cz-[Ln(Lig)], Nd^III ([3]; after 1 week at 80° C.): 25%; conversion to 1,5-cz-[Ln(Lig)], Pr^III ([3]; after 1 week at 80° C.): 15%; conversion to 1,5-cz-[Ln(Lig)], Sm^III ([3]; after 1 week at 80° C.): 46%; conversion to 1,5-cz-[Ln(Lig)], Sm^III ([3]; after 1 hour at 80° C.): 0%; conversion to 1,5-cz-[Ln(Lig)], Tb^III ([3]; after 1 week at 80° C.): 72%; conversion to 1,5-cz-[Ln(Lig)], Tb^III ([3]; after 1 hour at 80° C.): 1%; conversion to 1,5-cz-[Ln(Lig)], Tm^III ([3]; after 1 week at 80° C.): 93%; conversion to 1,5-cz-[Ln(Lig)], Tm^III ([3]; after 1 hour at 80° C.): 7%; conversion to 1,5-cz-[Ln(Lig)], Yb^III ([3]; after 1 week at 80° C.): 95%; conversion to 1,5-cz-[Ln(Lig)], Yb^III ([3]; after 1 hour at 80° C.): 10% |
